The test system of experiment [1] is HepG2 cells. Nature of the experiment: Hepatoprotective assay (APAP-exposed cells, cell viability). In kind it is cell-based. As to conditions: tested concentration of 100 μM (method 50 μM), 20 mM APAP, Figure 3 B1. The protocol: HepG2 cells were seeded into 96-well tissue culture dishes at 5 × 10^3 cells/well and cultured overnight in DMEM medium supplemented with 10% FBS and 1% penicillin/streptomycin antibiotics at 37 °C in a humidified 5% CO2 incubator. The cells were then incubated with test compounds at 50 μM or extracts at 200 mg mL^–1 for 4 h before acetaminophen (APAP) exposure. After this pretreatment, the experimental group was treated with 20 mM APAP together with the compounds; the APAP-only group was treated with 20 mM neomycin and an equivalent volume of DMSO; and the control group was treated with an equivalent volume of DMSO without APAP or test compounds. After another 24 h of culture, the cell viability was then measured using the CellTiter 96 Aqueous One Solution Cell Proliferation Assay kit (Promega, USA).[12]

Experiment [2] is described as follows: DPPH radical scavenging capacity assay. As to conditions: for DPPH EC50 / EC50: pure compounds, 30 min, 517 nm, ascorbic acid positive control; for free radical scavenging effect in comparison to ascorbic acid, in words: DPPH assay. The protocol: The DPPH radical scavenging capacity assay was performed according to a previously described method with slight modifications.[34] Briefly, the tested compounds or extracts were dissolved in a small volume of DMSO to generate a 10 mM or 100 mg mL^–1 (for the extracts) stock solution and diluted to generate the final testing solution with methanol. The 0.2 mM fresh DPPH methanol solution was prepared daily. The 90 μL of methanolic solution of DPPH was added to 60 μL of tested compound solution with different concentrations (or 60 μL of methanol as blank) in 96-well plates and allowed to react for 30 min at ambient temperature in the dark. The absorbance (OD) was measured at 517 nm on an Infinite M200 Pro (Tecan, Austria) microplate reader. The level of the DPPH• scavenging activity was calculated as [drawing 1] The EC50 values were calculated by using GraphPad Prism 8 software 4.6.
In general terms: The DPPH test is a chemical assay of radical scavenging.

In experiment [3] the test system is HaCaT cells. In words: Anti-aging bioassay (UV-B irradiation model and viability assay, MTS). The note with it: samples 25 μM, 24 h. In kind it is cell-based, Human. The protocol: Human HaCaT cells were cultured routinely in DMEM (high glucose) supplemented with 10% fetal bovine serum and 1% penicillin–streptomycin solution in a humidified incubator at 37 °C and 5% CO2.[19] All cells were cultured in culture dishes, and the medium was changed every day. The cells were cultured when the cell density reached 80%. Briefly, the HaCaT cells were cultured for 24 h after plating at a density of 4 × 10^4 cells/100 μL in 96-well plates. Subsequently, cells were irradiated according to the grouping using a 20 W UV–B lamp (SiTing, Shanghai, CN) at a distance of 10 cm for 5 s. The irradiation dose was calculated to be approximately 0.80 J cm^–2. Cells were divided into the following groups: control, UV–B alone, and UV–B + samples (25 μM). After UV–B irradiation, HaCaT cells continued to culture for 24 h with the medium containing compounds to be measured. The effects of those compounds on cell protection were determined by the MTS assay (BestBio, Shanghai, CN). After incubation, cells in each well were treated with 20 μL MTS solution for 1 h. The absorbance at 490 nm was measured directly with a microplate reader (FlexStation3, Molecular Devices, CA, US). Cell viability was expressed as the ratio percentage of MTS after deducting background value, assuming that the absorbance of control cells with deducting background absorbance was 100%.

In experiment [4] the target is T1, COX-2 (Ovis aries, UniProt P79208).
T1 construct: purchased Cayman 760110
T1 sequence (P79208 17-603): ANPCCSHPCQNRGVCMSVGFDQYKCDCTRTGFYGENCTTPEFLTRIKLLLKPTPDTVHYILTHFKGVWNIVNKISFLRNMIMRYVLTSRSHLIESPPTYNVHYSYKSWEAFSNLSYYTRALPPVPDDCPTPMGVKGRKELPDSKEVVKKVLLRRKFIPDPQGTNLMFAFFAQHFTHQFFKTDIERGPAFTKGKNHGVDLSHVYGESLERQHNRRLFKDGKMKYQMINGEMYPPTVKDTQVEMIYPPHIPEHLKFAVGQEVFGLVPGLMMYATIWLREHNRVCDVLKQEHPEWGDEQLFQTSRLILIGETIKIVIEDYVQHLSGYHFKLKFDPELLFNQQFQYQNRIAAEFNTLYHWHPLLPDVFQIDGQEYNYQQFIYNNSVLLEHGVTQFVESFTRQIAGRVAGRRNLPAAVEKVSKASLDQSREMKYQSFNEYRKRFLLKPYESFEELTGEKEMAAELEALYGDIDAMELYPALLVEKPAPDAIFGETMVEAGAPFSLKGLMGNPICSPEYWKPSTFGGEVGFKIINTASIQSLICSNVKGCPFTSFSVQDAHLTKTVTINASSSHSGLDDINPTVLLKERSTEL
Nature of the experiment: COX (ovine) colorimetric inhibitor screening assay, COX-2. It counts as biochemical. The note with it: for COX-2 inhibition, in words: in comparison to acetaminophen, Figure 3 A. As for the experimental part: (§1) Each compound was assayed in triplicate, and GraphPad Prism 8 software was used to calculate EC50 values. All statistical analyses were performed by Microsoft Excel.

The target in experiment [5] is T2, COX-1 (Ovis aries, UniProt P05979).
T2 construct: purchased Cayman 760110
T2 sequence (P05979 25-600): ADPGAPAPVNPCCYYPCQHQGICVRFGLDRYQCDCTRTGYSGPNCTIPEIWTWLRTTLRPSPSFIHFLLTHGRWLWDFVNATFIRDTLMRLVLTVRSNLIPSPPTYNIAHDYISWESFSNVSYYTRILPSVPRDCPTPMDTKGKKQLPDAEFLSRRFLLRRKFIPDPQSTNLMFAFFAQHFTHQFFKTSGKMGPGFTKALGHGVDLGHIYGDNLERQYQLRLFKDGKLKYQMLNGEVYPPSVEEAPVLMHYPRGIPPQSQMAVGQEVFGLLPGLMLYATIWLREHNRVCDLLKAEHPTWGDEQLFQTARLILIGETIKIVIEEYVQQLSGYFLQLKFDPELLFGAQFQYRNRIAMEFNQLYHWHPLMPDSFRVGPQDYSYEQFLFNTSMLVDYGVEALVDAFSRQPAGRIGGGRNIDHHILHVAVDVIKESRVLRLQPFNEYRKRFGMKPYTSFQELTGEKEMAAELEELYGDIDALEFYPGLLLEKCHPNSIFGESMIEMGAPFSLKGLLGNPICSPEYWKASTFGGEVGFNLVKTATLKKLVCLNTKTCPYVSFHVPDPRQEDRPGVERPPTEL
Nature of the experiment: COX (ovine) colorimetric inhibitor screening assay, COX-1. In kind it is biochemical. As to conditions: for COX-1 inhibition, in words: in comparison to acetaminophen, Figure 3 A. The protocol:
as §1

Where [6] appears, read: pure compounds, acetaminophen positive control.

SMILES strings stand for the structures. “Also recorded” adds a separate entry of the source.

Usually EC50 stands for the concentration needed to bring the measured effect to its halfway point. Low readings indicate a more potent agent, high ones a less potent agent. With `CC1(C)C(O)C(=O)CC2(C)C1CCC1(C)C2CC=C2C3C(C(=O)O)(CCC(C(=O)O)C3(C)O)CCC21C` (centres unmarked) [Compound 3, rosaroxine C], the “hepatoprotective effect (cell viability of HepG2 cells), in words” value (“hepatoprotective effect” below) in experiment [1] was “no protective effects”. For the same compound, the “DPPH EC50” value in experiment [2] is “no activity”. The “anti-aging effect (cell viability after UV-B irradiation), in words” value (“anti-aging effect” for short) in experiment [3] (Figure 3 B2) was “most active compounds”; in experiment [3] (Figure 3 B2, listed as rosaroxine C) it was “performed well”. Also, the “COX-2 inhibition, in words” value in experiment [4] is reported as “significant activities; also recorded: high inhibition rates”. Further, the EC50 was found to be 37.4 µM in experiment [4] (setting [6]) and 40.3 µM in experiment [5] (setting [6]). In addition, the “COX-1 inhibition, in words” value in experiment [5] is reported as “significant activities; also recorded: high inhibition rates”.

Regarding `O=C(O)c1ccc(O)c(O)c1` [Compound 22, protocatechuic acid], in experiment [1], the “hepatoprotective effect” value was “no protective effects”. In experiment [2], the “free radical scavenging effect in comparison to ascorbic acid, in words” value (from here on “free radical scavenging effect”) is given as “powerful free radical scavenging effects” and the EC50 was determined as 15.2 µM. Further, the “anti-aging effect” value in experiment [3] (Figure 3 B2) is “most active compounds”. Besides, the “COX-2 EC50” value in experiment [4] (setting [6]) was “no activity”. In addition, in experiment [5] (setting [6]), the “COX-1 EC50” value is “no activity”.

Consider `C[C@@H]1CC[C@]2(C(=O)O)CC[C@]3(C)C(=CC[C@@H]4[C@@]5(C)CC(=O)[C@H](O)C(C)(C)[C@@H]5CC[C@]43C)[C@@H]2[C@]1(C)O` [Compound 5, 2-oxo-pomolic acid], for which the “hepatoprotective effect” value in experiment [1] is listed as “no protective effects”. In addition, in experiment [2], the “DPPH EC50” value is “no activity”. Moreover, the “anti-aging effect” value was “most active compounds” in experiment [3] (Figure 3 B2) and “performed well” in experiment [3] (Figure 3 B2, listed as 2-oxo-pomolic acid). Further, the “COX-2 inhibition, in words” value in experiment [4] is recorded as “significant activities; also recorded: high inhibition rates”. For the same compound, the EC50 was found to be 16.6 µM in experiment [4] (setting [6]) and 28.2 µM in experiment [5] (setting [6]). For the same compound, the “COX-1 inhibition, in words” value in experiment [5] is recorded as “significant activities; also recorded: high inhibition rates”.

On to `O=c1c(O)c(-c2ccc(O)c(O)c2)oc2cc(O)cc(O)c12` [Compound 16, quercetin], for which the “hepatoprotective effect” value in experiment [1] is “no protective effects”. For the same compound, in experiment [2], the “free radical scavenging effect” value is recorded as “powerful free radical scavenging effects”. In addition, the EC50 in experiment [2] stood at 13.1 µM; in experiment [4] (setting [6]), 18.8 µM; in experiment [5] (setting [6]), 33.1 µM. The “COX-2 inhibition, in words” value in experiment [4] is “high inhibition rates”. Moreover, in experiment [5], the “COX-1 inhibition, in words” value is recorded as “high inhibition rates”.

In the case of `Oc1cc(O)c2c(c1)OC(c1ccc(O)c(O)c1)C(O)C2` (centres unmarked) [Compound 15, catechin], in experiment [1], the “hepatoprotective effect” value is “no protective effects”. In experiment [2], the “free radical scavenging effect” value is given as “powerful free radical scavenging effects”. The figures for the EC50 in experiment [2], in experiment [4] (setting [6]) and in experiment [5] (setting [6]) were 13.4 µM, 53.3 µM and 29 µM, respectively. The “COX-1 inhibition, in words” value in experiment [5] was “high inhibition rates”.

As to `O=C(O)c1cc(O)c(O)c(O)c1` [Compound 21, gallic acid], the “free radical scavenging effect” value in experiment [2] was “powerful free radical scavenging effects”. Further, the values for the EC50 in experiment [2], in experiment [4] (setting [6]) and in experiment [5] (setting [6]) were 10 µM, 26.3 µM and 40 µM, respectively. Further, the “COX-2 inhibition, in words” value in experiment [4] is on record as “high inhibition rates”. Moreover, the “COX-1 inhibition, in words” value in experiment [5] was “high inhibition rates”.

`CC(=O)Nc1ccc(O)cc1` [Acetaminphen, acetaminophen, reference compound]: the concentration for a half-maximal effect (EC50) was 45 µM in experiment [4] (setting [6]) and above 100 µM in experiment [5] (setting [6]).

In experiment [2], `O=C1O[C@H]([C@@H](O)CO)C(O)=C1O` [Ascorbic acid, ascorbic acid, reference compound] had an EC50 of 31.3 µM.

These data come from paper PMC11391452, “Fruits from Rosa roxburghii: A Valuable Bioresource of Potent Radical Scavengers and Novel Ursane-Type Triterpenoids” (ACS Omega, 2024).
